In US20180206491A1, “SUBSTITUTED CYCLIC ARYL AND HETEROARYL CARBOXYLIC ACID HYDRAZIDES OR SALTS THEREOF AND USE THEREOF TO INCREASE STRESS TOLERANCE IN PLANTS” (Bayer CropScience Aktiengesellschaft, priority 2015, published 2018):

What was measured:
Conditions in all cases: spray application
[1] = system: Brassica napus; assay: In vivo analyses Part B: drought stress, appearance versus stressed control plants in categories; parameters: key: 0: no positive effect; +: slight positive effect; ++: clear positive effect; +++: strong positive effect
Protocol: (§1) Seeds of monocotyledonous and dicotyledonous crop plants were sown in sandy loam in plastic pots, covered with soil or sand and cultivated in a greenhouse under good growth conditions. The test plants are treated at the early leaf stage (BBCH10-BBCH13). To assure uniform water supply before commencement of stress, the potted plants were supplied with water by dam irrigation prior to substance application. The inventive compounds were first formulated as wettable powders (WP) or dissolved in a solvent mixture. The further dilution was effected with water supplemented with 0.2% wetting agent (e.g. agrotin). The finished spray liquor was sprayed onto the green parts of the plant at an equivalent water application rate of 600 l/ha. Substance application was followed immediately by stress treatment of the plants. Drought stress was induced by gradual drying out under the following conditions: “Day”: 14 hours with illumination at ˜26-30° C. “Night”: 10 hours without illumination at ˜18-20° C. The duration of the respective stress phases was guided mainly by the condition of the stressed control plants. It was ended (by re-irrigating and transfer to a greenhouse with good growth conditions) as soon as irreversible damage was observed on the stressed control plants. The end of the stress phase was followed by an about 4-7-day recovery phase, during which the plants were once again kept under good growth conditions in a greenhouse. The duration of the recovery phase was guided mainly by when the trial plants had attained a state which enabled visual scoring of potential effects, and was therefore variable. Once this juncture had been reached, the appearance of the plants treated with test substances was recorded in comparison to the stressed control plants by the following categories: • 0 no positive effect • + slight positive effect • ++ clear positive effect • +++ strong positive effect In order to rule out any influence on the effects observed by any fungicidal or insecticidal action of the test compounds, it was additionally ensured that the tests proceeded without fungal infection or insect infestation. The values reported in tables B-1 and B-2 below are mean values of the results from at least three repeats. Effects of selected compounds of the general formula (I) under drought stress according to the following tables B-1 and B-2: […]

[2] = system: Triticum aestivum; assay: In vivo analyses: drought stress, visual scoring of damage, efficacy EF
Protocol: (§2) Seeds of monocotyledonous and dicotyledonous crop plants were sown in sandy loam in wood-fiber or plastic pots, covered with soil or sand and cultivated in a greenhouse under good growth conditions. The trial plants were treated at the early leaf stage (BBCH10-BBCH13). To assure uniform water supply before commencement of stress, the potted plants were supplied with water by dam irrigation prior to substance application. The inventive compounds formulated in the form of wettable powders (WP) were sprayed onto the green parts of the plants as an aqueous suspension at an equivalent water application rate of 600 I/ha with addition of 0.2% wetting agent (e.g. agrotin). Substance application was followed immediately by stress treatment of the plants. For this purpose, the wood-fiber pots were transferred in plastic inserts in order to prevent them from subsequently drying out too quickly. Drought stress was induced by gradual drying out under the following conditions: “Day”: 14 hours with illumination at ˜26-30° C. “Night”: 10 hours without illumination at ˜18-20° C. The duration of the respective stress phases was guided mainly by the condition of the stressed control plants. It was ended (by re-irrigating and transfer to a greenhouse with good growth conditions) as soon as irreversible damage was observed on the stressed control plants. The end of the stress phase was followed by an about 4-7-day recovery phase, during which the plants were once again kept under good growth conditions in a greenhouse. The duration of the recovery phase was guided mainly by when the trial plants had attained a state which enabled visual scoring of potential effects, and is therefore variable. Once this juncture was reached, the intensities of damage were scored visually in comparison to untreated, unstressed controls of the same age. The damage intensity was at first assessed in percent. These values were then used to calculate the efficacy of the test compounds by the following formula: [formula] EF: Efficacy DIs: Damage intensity of the stressed control plants DIt: Damage intensity of the stressed plants treated with test compound The values reported in tables A-1 to A-3 below are mean values from at least one trial with at least two repeats, showing the effects of selected compounds of the general formula (I) under drought stress on various crop plants.

[3] = system: Zea mays; assay: as above
Protocol: as §2

[4] = system: Brassica napus; assay: as above
Protocol: as §2

[5] = system: Triticum aestivum; assay: In vivo analyses Part B: drought stress, appearance versus stressed control plants in categories; parameters: key: 0: no positive effect; +: slight positive effect; ++: clear positive effect; +++: strong positive effect
Protocol: as §1

SMILES: COC1CCCN(N(Cc2ccccc2C#N)C(=O)c2ccccc2C(F)(F)F)C1 (stereo not shown) [A13-61]
- Effect (BRSNS) ([1]; 25 g/ha): +

SMILES: N#Cc1ccccc1CN(C(=O)c1cnccc1C(F)(F)F)N1CCCC1 [B2-61, N-(2-Cyanobenzyl)-N-(pyrrolidin-1-yl)-4-(trifluoromethyl)nicotinamide]
- EF [%] (TRZAS) ([2]; 25 g/ha): >5%
- EF [%] (ZEAMX) ([3]; 250 g/ha): >5%
- EF [%] (BRSNS) ([4]; 25 g/ha): >5%

SMILES: CC(c1ccc(F)cc1)N(C(=O)c1cnccc1C(F)(F)F)N1CCCC1 (stereo not shown) [B2-159]
- Effect (TRZAS) ([5]; 250 g/ha): +
- Effect (BRSNS) ([1]; 250 g/ha): +

SMILES: CN1CCN(N(Cc2ccccn2)C(=O)c2ccccc2C(F)(F)F)CC1 [A12-21, N—(N-Methylpyridazin-1-yl)-N-(pyridin-2-ylmethyl)-2-(trifluoromethyl)-benzamide]
- Effect (BRSNS) ([1]; 250 g/ha): +

SMILES: N#Cc1ccccc1CN(C(=O)c1ccnnc1)N1CCCC1 [F1-61]
- Effect (TRZAS) ([5]; 100 g/ha): +
- Effect (BRSNS) ([1]; 25 g/ha): +

SMILES: CN1CCN(N(Cc2ccccc2C#N)C(=O)c2cnccc2C(F)(F)F)CC1 [B6-61]
- Effect (TRZAS) ([5]; 250 g/ha): +

SMILES: O=C(c1ccc(Cl)c(Cl)c1)N(Cc1cc(Cl)ccc1Cl)N1CCCC1 [A5-6]
- EF [%] (ZEAMX) ([3]; 250 g/ha): >5%

SMILES: CN1CCN(N(Cc2ccccc2Cl)C(=O)c2cnccc2C(F)(F)F)CC1 [B6-1]
- Effect (TRZAS) ([5]; 250 g/ha): +

SMILES: COC1CCCN(N(Cc2ccccc2Cl)C(=O)c2ccccc2C(F)(F)F)C1 (stereo not shown) [A13-1]
- Effect (TRZAS) ([5]; 250 g/ha): +
- Effect (BRSNS) ([1]; 250 g/ha): +

SMILES: CN1CCN(N(Cc2nccc(Cl)c2Cl)C(=O)c2ccccc2C(F)(F)F)CC1 [A12-40]
- Effect (TRZAS) ([5]; 25 g/ha): +
- Effect (BRSNS) ([1]; 250 g/ha): +

SMILES: COC1CCCN(N(Cc2nccc(Cl)c2Cl)C(=O)c2ccccc2C(F)(F)F)C1 (stereo not shown) [A13-40]
- Effect (TRZAS) ([5]; 250 g/ha): +

SMILES: O=C(c1ccc(F)cc1C(F)(F)F)N(Cc1ccccc1Cl)N1CCCC1 [A6-1]
- EF [%] (TRZAS) ([2]; 25 g/ha): >5%
- EF [%] (ZEAMX) ([3]; 250 g/ha): >5%

SMILES: O=C(c1cnccc1C(F)(F)F)N(Cc1ccc(F)cc1F)N1CCCC1 [B2-15]
- Effect (TRZAS) ([5]; 250 g/ha): +

SMILES: O=C(c1ccccc1C(F)(F)F)N(Cc1ccc2ccccc2n1)N1CCCC1 [A2-122]
- EF [%] (TRZAS) ([2]; 250 g/ha): >5%
- EF [%] (ZEAMX) ([3]; 250 g/ha): >5%
- EF [%] (BRSNS) ([4]; 250 g/ha): >5%

SMILES: O=C(c1cnccc1C(F)(F)F)N(Cc1ccc(Cl)nc1)N1CCCC1 [B2-94]
- Effect (TRZAS) ([5]; 25 g/ha): +

SMILES: O=C(c1ccccc1C(F)(F)F)N(Cc1ccc(F)cc1F)N1CCCC1 [A2-15]
- Effect (TRZAS) ([5]; 250 g/ha): +
- Effect (BRSNS) ([1]; 250 g/ha): +

SMILES: CN1CCN(N(Cc2ccccc2C#N)C(=O)c2ccncc2)CC1 [C6-61]
- EF [%] (TRZAS) ([2]; 25 g/ha): >5%
- EF [%] (BRSNS) ([4]; 2.5 g/ha): >5%

SMILES: COC1CCCN(N(Cc2cccc(Cl)c2)C(=O)c2ccncc2)C1 (stereo not shown) [C8-2]
- EF [%] (BRSNS) ([4]; 250 g/ha): >5%

SMILES: COC1CCCN(N(Cc2ccccc2C#N)C(=O)c2cnccc2C(F)(F)F)C1 (stereo not shown) [B7-61]
- Effect (TRZAS) ([5]; 250 g/ha): +

SMILES: N#Cc1ccccc1CN(C(=O)c1cnccc1C(F)(F)F)N1CCOCC1 [B5-61, N-(2-Cyanobenzyl)-N-(morpholin-4-yl)-4-(trifluoromethyl)-nicotinamide]
- Effect (TRZAS) ([5]; 250 g/ha): +
- Effect (BRSNS) ([1]; 250 g/ha): +

SMILES: COc1c(C)cnc(CN(C(=O)c2ccccc2C(F)(F)F)N2CCCC2)c1C [A2-37]
- EF [%] (TRZAS) ([2]; 250 g/ha): >5%
- EF [%] (ZEAMX) ([3]; 25 g/ha): >5%

SMILES: N#Cc1ccccc1CN(C(=O)c1ccncc1)N1CCCCC1 [C4-61]
- EF [%] (TRZAS) ([2]; 25 g/ha): >5%
- EF [%] (ZEAMX) ([3]; 250 g/ha): >5%

SMILES: O=C(c1cnccc1C(F)(F)F)N(Cc1ccccn1)N1CCOCC1 [B5-21]
- Effect (BRSNS) ([1]; 250 g/ha): +

SMILES: COc1ccccc1C(=O)N(Cc1ccc(F)cc1F)N1CCCC1 [A9-15]
- Effect (TRZAS) ([5]; 25 g/ha): +

SMILES: COC1CCCN(N(Cc2cccc(C#N)c2)C(=O)c2ccncc2)C1 (stereo not shown) [C8-62]
- EF [%] (ZEAMX) ([3]; 250 g/ha): >5%
- EF [%] (BRSNS) ([4]; 2.5 g/ha): >5%

SMILES: CN1CCN(N(Cc2ccccn2)C(=O)c2cnccc2C(F)(F)F)CC1 [B6-21]
- Effect (TRZAS) ([5]; 250 g/ha): +
- Effect (BRSNS) ([1]; 250 g/ha): +

SMILES: O=C(c1cnccc1C(F)(F)F)N(Cc1ncc(C(F)(F)F)cc1Cl)N1CCCC1 [B2-36]
- Effect (TRZAS) ([5]; 25 g/ha): +
- Effect (BRSNS) ([1]; 250 g/ha): +

SMILES: COc1c(C)cnc(CN(C(=O)c2ccc(F)cc2C(F)(F)F)N2CCCC2)c1C [A6-37]
- EF [%] (BRSNS) ([4]; 2.5 g/ha): >5%

SMILES: O=C(c1ccccc1Cl)N(Cc1ccc(Cl)nc1)N1CCCC1 [A7-94]
- Effect (TRZAS) ([5]; 25 g/ha): +

SMILES: O=C(c1ccncc1)N(Cc1ccccc1Cl)N1CCOCC1 [C7-1]
- EF [%] (BRSNS) ([4]; 2.5 g/ha): >5%

SMILES: COC1CCCN(N(Cc2ccccc2Cl)C(=O)c2cnccc2C(F)(F)F)C1 (stereo not shown) [B7-1]
- Effect (TRZAS) ([5]; 25 g/ha): ++

SMILES: COC1CCCN(N(Cc2ccccn2)C(=O)c2cnccc2C(F)(F)F)C1 (stereo not shown) [B7-21]
- Effect (BRSNS) ([1]; 25 g/ha): +

SMILES: O=C(c1cnccc1C(F)(F)F)N(Cc1ccccc1F)N1CCOCC1 [B5-11]
- Effect (BRSNS) ([1]; 250 g/ha): +

SMILES: CN1CCN(N(Cc2ccccc2Cl)C(=O)c2ccccc2C(F)(F)F)CC1 [A12-1]
- Effect (TRZAS) ([5]; 250 g/ha): +

SMILES: COC1CCN(N(Cc2ccccn2)C(=O)c2ccccc2C(F)(F)F)C1 (stereo not shown) [A3-21, N-(3-Methoxypyrrolidin-1-yl)-N-(pyridin-2-ylmethyl)-2-(trifluoromethyl)benzamide]
- EF [%] (ZEAMX) ([3]; 250 g/ha): >5%

SMILES: COC1CCCN(N(Cc2ccccn2)C(=O)c2ccccc2C(F)(F)F)C1 (stereo not shown) [A13-21]
- Effect (TRZAS) ([5]; 250 g/ha): +

SMILES: O=C(c1ccccc1Cl)N(Cc1ccc(F)cc1F)N1CCCC1 [A7-15]
- Effect (TRZAS) ([5]; 25 g/ha): +
- Effect (BRSNS) ([1]; 250 g/ha): +

SMILES: N#Cc1ccccc1CN(C(=O)c1cccc2nnsc12)N1CCCC1 [A14-61]
- Effect (TRZAS) ([5]; 25 g/ha): +
- Effect (BRSNS) ([1]; 250 g/ha): +

SMILES: O=C(c1ccc(Cl)cc1Cl)N(Cc1ccc(F)cc1F)N1CCCC1 [A8-15]
- Effect (TRZAS) ([5]; 25 g/ha): +
